Reference: US11098038B2, “Imidazole-based anticancer agents and derivatives thereof, and methods of making and using same” (The University of Toledo, priority 2017, dated 2021)

Experiments:
UO-31 = assay: NCI 60 screen, UO-31; type: cell-based; conditions: Homo sapiens, Renal
Procedure: (§1) The compounds synthesized were tested at the National Cancer Institute (NCI) for anti-proliferative activity in the 60 human tumor cell line assay.

NCI-460 = assay: NCI 60 screen, NCI-460; type: cell-based; conditions: Homo sapiens, Non-Small Cell Lung
Procedure: as §1

SNB-19 = assay: NCI 60 screen, SNB-19; type: cell-based; conditions: Homo sapiens, CNS
Procedure: as §1

HCT15 = assay: NCI 60 screen, HCT15; type: cell-based; conditions: Homo sapiens, HCT-15, Colon
Procedure: as §1

MDA-MB-468 = assay: NCI 60 screen, MDA-MB-468; type: cell-based; conditions: Homo sapiens, Breast
Procedure: as §1

ACHN = assay: NCI 60 screen, ACHN; type: cell-based; conditions: Homo sapiens, Renal
Procedure: as §1

RPMI-8226 = assay: NCI 60 screen, RPMI-8226; type: cell-based; conditions: Homo sapiens, Leukemia
Procedure: as §1

A498 = assay: NCI 60 screen, A498; type: cell-based; conditions: Homo sapiens, Renal
Procedure: as §1

NCI-H522 = assay: NCI 60 screen, NCI-H522; type: cell-based; conditions: Homo sapiens, Non-Small Cell Lung
Procedure: as §1

OVCAR-5 = assay: NCI 60 screen, OVCAR-5; type: cell-based; conditions: Homo sapiens, Ovarian
Procedure: as §1

HL-60(TB) = assay: NCI 60 screen, HL-60(TB); type: cell-based; conditions: Homo sapiens, Leukemia
Procedure: as §1

KM12 = assay: NCI 60 screen, KM12; type: cell-based; conditions: Homo sapiens, Colon
Procedure: as §1

NCI-H226 = assay: NCI 60 screen, NCI-H226; type: cell-based; conditions: Homo sapiens, Non-Small Cell Lung
Procedure: as §1

SR = assay: NCI 60 screen, SR; type: cell-based; conditions: Homo sapiens, Leukemia
Procedure: as §1

DU-145 = assay: NCI 60 screen, DU-145; type: cell-based; conditions: Homo sapiens, Prostatic
Procedure: as §1

SF-539 = assay: NCI 60 screen, SF-539; type: cell-based; conditions: Homo sapiens, CNS
Procedure: as §1

OVCAR-4 = assay: NCI 60 screen, OVCAR-4; type: cell-based; conditions: Homo sapiens, Ovarian
Procedure: as §1

NCI/ADR-RES = assay: NCI 60 screen, NCI/ADR-RES; type: cell-based; conditions: Homo sapiens, Ovarian
Procedure: as §1

UACC-257 = assay: NCI 60 screen, UACC-257; type: cell-based; conditions: Homo sapiens, Melanoma
Procedure: as §1

SN12C = assay: NCI 60 screen, SN12C; type: cell-based; conditions: Homo sapiens, Renal
Procedure: as §1

SK-MEL-5 = assay: NCI 60 screen, SK-MEL-5; type: cell-based; conditions: Homo sapiens, Melanoma
Procedure: as §1

HS 578T = assay: NCI 60 screen, HS 578T; type: cell-based; conditions: Homo sapiens, Breast
Procedure: as §1

SK-MEL-2 [1] = assay: NCI 60 screen, SK-MEL-2 (first line); type: cell-based; conditions: Homo sapiens; Melanoma, SK-MEL-2 (first of two lines so named, r37)
Procedure: as §1

NCI-H23 = assay: NCI 60 screen, NCI-H23; type: cell-based; conditions: Homo sapiens, Non-Small Cell Lung
Procedure: as §1

NCI-322M = assay: NCI 60 screen, NCI-322M; type: cell-based; conditions: Homo sapiens, Non-Small Cell Lung
Procedure: as §1

SK-MEL-2 [2] = assay: NCI 60 screen, SK-MEL-2 (second line); type: cell-based; conditions: Homo sapiens; Melanoma, SK-MEL-2 (second of two lines so named, r38)
Procedure: as §1

MOLT-4 = assay: NCI 60 screen, MOLT-4; type: cell-based; conditions: Homo sapiens, Leukemia
Procedure: as §1

HOP-62 = assay: NCI 60 screen, HOP-62; type: cell-based; conditions: Homo sapiens, Non-Small Cell Lung
Procedure: as §1

OVCAR-3 = assay: NCI 60 screen, OVCAR-3; type: cell-based; conditions: Homo sapiens, Ovarian
Procedure: as §1

EKVX = assay: NCI 60 screen, EKVX; type: cell-based; conditions: Homo sapiens, Non-Small Cell Lung
Procedure: as §1

RXF393 = assay: NCI 60 screen, RXF393; type: cell-based; conditions: Homo sapiens, RXF 393, Renal
Procedure: as §1

HCC-2998 = assay: NCI 60 screen, HCC-2998; type: cell-based; conditions: Homo sapiens, Colon
Procedure: as §1

HT29 = assay: NCI 60 screen, HT29; type: cell-based; conditions: Homo sapiens, HT-29, Colon
Procedure: as §1

PC-3 = assay: NCI 60 screen, PC-3; type: cell-based; conditions: Homo sapiens, Prostatic
Procedure: as §1

MDA-MB-231/ATCC = assay: NCI 60 screen, MDA-MB-231/ATCC; type: cell-based; conditions: Homo sapiens, Breast
Procedure: as §1

SNB-75 = assay: NCI 60 screen, SNB-75; type: cell-based; conditions: Homo sapiens, CNS
Procedure: as §1

T-47D = assay: NCI 60 screen, T-47D; type: cell-based; conditions: Homo sapiens, T47D, Breast
Procedure: as §1

U251 = assay: NCI 60 screen, U251; type: cell-based; conditions: Homo sapiens, U-251, CNS
Procedure: as §1

MCF7 = assay: NCI 60 screen, MCF7; type: cell-based; conditions: Homo sapiens, Breast
Procedure: as §1

SF-268 = assay: NCI 60 screen, SF-268; type: cell-based; conditions: Homo sapiens, CNS
Procedure: as §1

MDA-MB-435 = assay: NCI 60 screen, MDA-MB-435; type: cell-based; conditions: Homo sapiens, Melanoma
Procedure: as §1

UACC-62 = assay: NCI 60 screen, UACC-62; type: cell-based; conditions: Homo sapiens, Melanoma
Procedure: as §1

LOX IMVI = assay: NCI 60 screen, LOX IMVI; type: cell-based; conditions: Homo sapiens, Melanoma
Procedure: as §1

IGROV1 = assay: NCI 60 screen, IGROV1; type: cell-based; conditions: Homo sapiens, IGROV-1, Ovarian
Procedure: as §1

SF-295 = assay: NCI 60 screen, SF-295; type: cell-based; conditions: Homo sapiens, CNS
Procedure: as §1

786-0 = assay: NCI 60 screen, 786-0; type: cell-based; conditions: Homo sapiens, Renal
Procedure: as §1

BT-549 = assay: NCI 60 screen, BT-549; type: cell-based; conditions: Homo sapiens, Breast
Procedure: as §1

CCRF-CEM = assay: NCI 60 screen, CCRF-CEM; type: cell-based; conditions: Homo sapiens, Leukemia
Procedure: as §1

A549/ATCC = assay: NCI 60 screen, A549/ATCC; type: cell-based; conditions: Homo sapiens, Non-Small Cell Lung
Procedure: as §1

SW-620 = assay: NCI 60 screen, SW-620; type: cell-based; conditions: Homo sapiens, Colon
Procedure: as §1

MALME-3M = assay: NCI 60 screen, MALME-3M; type: cell-based; conditions: Homo sapiens, Melanoma
Procedure: as §1

M14 = assay: NCI 60 screen, M14; type: cell-based; conditions: Homo sapiens, Melanoma
Procedure: as §1

TK-10 = assay: NCI 60 screen, TK-10; type: cell-based; conditions: Homo sapiens, Renal
Procedure: as §1

SK-OV-3 = assay: NCI 60 screen, SK-OV-3; type: cell-based; conditions: Homo sapiens, Ovarian
Procedure: as §1

K-562 = assay: NCI 60 screen, K-562; type: cell-based; conditions: Homo sapiens, K562, Leukemia
Procedure: as §1

HOP-92 = assay: NCI 60 screen, HOP-92; type: cell-based; conditions: Homo sapiens, Non-Small Cell Lung
Procedure: as §1

OVCAR-8 = assay: NCI 60 screen, OVCAR-8; type: cell-based; conditions: Homo sapiens, Ovarian
Procedure: as §1

COLO 205 = assay: NCI 60 screen, COLO 205; type: cell-based; conditions: Homo sapiens, Colon
Procedure: as §1

HCT-116 = assay: NCI 60 screen, HCT-116; type: cell-based; conditions: Homo sapiens, Colon
Procedure: as §1

## O=C(Cc1ccc(/C=C/C(=O)c2ncc[nH]2)cc1)Nc1ccc(F)cc1 [Compound 22, (E)-2-(4-(3-(1H-imidazol-2-yl)-3-oxoprop-1-en-1-yl)phenyl)-N-(4-fluorophenyl)acetamide]
UO-31
  GI50: 2.64 µM
NCI-460
  GI50: 1.72 µM
SNB-19
  GI50: 1.58 µM
HCT15
  GI50: 1.15 µM
MDA-MB-468
  GI50: 0.97 µM
ACHN
  GI50: 4.82 µM
RPMI-8226
  GI50: 1.27 µM
A498
  GI50: 8.93 µM
NCI-H522
  GI50: 3.38 µM
OVCAR-5
  GI50: 2.6 µM
HL-60(TB)
  GI50: 1.66 µM
KM12
  GI50: 2.1 µM
NCI-H226
  GI50: 9.85 µM
SR
  GI50: 1.11 µM
DU-145
  GI50: 1.19 µM
SF-539
  GI50: 0.84 µM
OVCAR-4
  GI50: 9.14 µM
NCI/ADR-RES
  GI50: 7.18 µM
UACC-257
  GI50: 8.67 µM
SN12C
  GI50: 2.93 µM
SK-MEL-5
  GI50: 6.06 µM
HS 578T
  GI50: 2.33 µM
SK-MEL-2 [1]
  GI50: 7.47 µM
NCI-H23
  GI50: 1.91 µM
NCI-322M
  GI50: 3.35 µM
SK-MEL-2 [2]
  GI50: 6.26 µM
MOLT-4
  GI50: 5.74 µM
HOP-62
  GI50: 2.64 µM
OVCAR-3
  GI50: 1.7 µM
EKVX
  GI50: 7.46 µM
RXF393
  GI50: 3.44 µM
HCC-2998
  GI50: 5.43 µM
HT29
  GI50: 1.15 µM
PC-3
  GI50: 2.8 µM
MDA-MB-231/ATCC
  GI50: 1.83 µM
SNB-75
  GI50: 1.11 µM
T-47D
  GI50: 3.33 µM
U251
  GI50: 1.2 µM
MCF7
  GI50: 0.99 µM
SF-268
  GI50: 5.1 µM
MDA-MB-435
  GI50: 4.07 µM
UACC-62
  GI50: 5.92 µM
LOX IMVI
  GI50: 1.07 µM
IGROV1
  GI50: 2.66 µM
SF-295
  GI50: 4.74 µM
786-0
  GI50: 1.37 µM
BT-549
  GI50: 2.73 µM
CCRF-CEM
  GI50: 1.68 µM
A549/ATCC
  GI50: 6.94 µM
SW-620
  GI50: 1.43 µM
MALME-3M
  GI50: 7.86 µM
M14
  GI50: 5.98 µM
TK-10
  GI50: 7.89 µM
SK-OV-3
  GI50: 9.38 µM
K-562
  GI50: 1.3 µM
HOP-92
  GI50: 9.11 µM
OVCAR-8
  GI50: 5.08 µM
COLO 205
  GI50: 4.54 µM
HCT-116
  GI50: 1.89 µM

## Cn1ccnc1C(=O)/C=C/c1ccc(CC(=O)Nc2ccccc2)cc1 [Compound 27, (E)-2-(4-(3-(1-methyl-1H-imidazol-2-yl)-3-oxoprop-1-en-1-yl)phenyl)-N-phenylacetamide]
UO-31
  GI50: 2.77 µM
NCI-460
  GI50: 2.32 µM
SNB-19
  GI50: 1.9 µM
HCT15
  GI50: 1.25 µM
MDA-MB-468
  GI50: 1.71 µM
ACHN
  GI50: 5.24 µM
RPMI-8226
  GI50: 1.45 µM
other
  melting point: 184 to 186 °C
A498
  GI50: 6.08 µM
NCI-H522
  GI50: 3.2 µM
OVCAR-5
  GI50: 4.19 µM
HL-60(TB)
  GI50: 1.57 µM
KM12
  GI50: 3.39 µM
NCI-H226
  GI50: 8.59 µM
SR
  GI50: 1.16 µM
DU-145
  GI50: 1.1 µM
SF-539
  GI50: 2.43 µM
OVCAR-4
  GI50: 4.12 µM
NCI/ADR-RES
  GI50: 7.54 µM
UACC-257
  GI50: 6.98 µM
SN12C
  GI50: 3.84 µM
SK-MEL-5
  GI50: 4.18 µM
HS 578T
  GI50: 1.42 µM
SK-MEL-2 [1]
  GI50: 5.06 µM
NCI-H23
  GI50: 3.24 µM
NCI-322M
  GI50: 2.57 µM
SK-MEL-2 [2]
  GI50: 5.69 µM
MOLT-4
  GI50: 4.3 µM
HOP-62
  GI50: 3.75 µM
OVCAR-3
  GI50: 1.87 µM
EKVX
  GI50: 6.28 µM
RXF393
  GI50: 3.86 µM
HCC-2998
  GI50: 4.42 µM
HT29
  GI50: 2.4 µM
PC-3
  GI50: 3.29 µM
MDA-MB-231/ATCC
  GI50: 2.37 µM
SNB-75
  GI50: 25 µM
T-47D
  GI50: 5.23 µM
U251
  GI50: 1.57 µM
MCF7
  GI50: 1.13 µM
SF-268
  GI50: 3.75 µM
MDA-MB-435
  GI50: 4.3 µM
UACC-62
  GI50: 4.13 µM
LOX IMVI
  GI50: 1.03 µM
IGROV1
  GI50: 2.11 µM
SF-295
  GI50: 5.44 µM
786-0
  GI50: 2.67 µM
BT-549
  GI50: 2.95 µM
CCRF-CEM
  GI50: 2.37 µM
A549/ATCC
  GI50: 6.6 µM
SW-620
  GI50: 2.75 µM
MALME-3M
  GI50: 5.93 µM
M14
  GI50: 4.55 µM
TK-10
  GI50: 7.44 µM
SK-OV-3
  GI50: 9.3 µM
K-562
  GI50: 1.07 µM
HOP-92
  GI50: 6.63 µM
OVCAR-8
  GI50: 6.44 µM
COLO 205
  GI50: 3.77 µM
HCT-116
  GI50: 1.68 µM
